Measured values from patent US20220306695A1, “COMPSTATIN ANALOGUES AND THEIR MEDICAL USES” (priority 2019, published 2022).
Starred links: 1 amine or outer side, 2 acyl side, 3 side chain; linkers in the order of their positions; H or OH if unused. Positions of bridges follow the written chain, without caps; N, C: chain ends. Non-standard residues stand in square brackets, D forms with d. Residues, ends and D or L forms follow the SMILES beside them. Groups on a side chain read outwards from the residue. *: point of attachment. Trp(1-Me) = Cn1cc(C[C@H](N)C(=O)O)c2ccccc21; C18 diacid = O=C(O)CCCCCCCCCCCCCCCCC(=O)*; C16 diacid = O=C(O)CCCCCCCCCCCCCCC(=O)*; γGlu = O=C(O)[C@H](CCC(=O)[*:2])N[*:1]; AEEA = NCCOCCOCC(=O)O; Aoc = NCCCCCCCC(=O)O; Sar = CNCC(=O)O

Tested on: classical complement pathway
Experiment: In vitro haemolysis assay (inhibition of classical complement pathway)
Type: cell-based, human
Details: Table 3; human serum, sensitized sheep red blood cells; read-out: IC50[nM], in vitro analysis of inhibition of hemolysis
Method in brief: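 Serially diluted compound (9 points) was preincubated 15 min at room temperature with diluted human serum, titrated per batch to give 70-90% maximal haemolysis, in Tris/casein buffer pH 7.4 with Mg2+/Ca2+. Antibody-sensitized sheep erythrocytes were then added for 30 min at 37° C, and the reaction was stopped with EDTA. Haemolysis was read at A405, with IC50 from 4PL fit.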

Row | Compound | IC50
1 | CC[C@H](C)[C@@H]1NC(=O)[C@@H](NC(=O)[C@H](Cc2ccccc2)NC(=O)[C@H](CCC(=O)O)NC(=O)[C@H](CO)NC(C)=O)CSSC[C@@H](C(=O)N(C)CC(=O)N[C@@H](CCC(=O)O)C(=O)NCC(=O)N[C@@H](CCC(=O)O)C(=O)NCC(=O)NCC(=O)NCC(=O)N[C@@H](CCCCNC(=O)CC[C@H](NC(=O)CNC(=O)CC[C@H](NC(=O)CCCCCCCCCCCCCCCCC(=O)O)C(=O)O)C(=O)O)C(N)=O)NC(=O)[C@H](CCCNC(=N)N)NC(=O)[C@H](Cc2c[nH]cn2)NC(=O)[C@H](CCC(=O)O)NC(=O)CNC(=O)[C@H](Cc2c[nH]c3ccccc23)NC(=O)[C@H](CC(=O)O)NC(=O)[C@H](CCC(N)=O)NC(=O)[C@H](Cc2cn(C)c3ccccc23)NC1=O [Compound 129] (Ac-SEFCI[Trp(1-Me)]QDWGEHRC[Sar]EGEGGGK([γGlu-Gly-γGlu-C18 diacid])-NH2; disulfide 4-14) | < 100 nM
2 | CC[C@H](C)[C@@H]1NC(=O)[C@@H](NC(=O)[C@H](Cc2ccccc2)NC(=O)[C@H](CCC(=O)O)NC(=O)[C@H](CO)NC(C)=O)CSSC[C@@H](C(=O)N[C@H](C(=O)N[C@@H](CCC(=O)O)C(=O)NCC(=O)N[C@@H](CCC(=O)O)C(=O)NCC(=O)NCC(=O)NCC(=O)N[C@@H](CCCCNC(=O)CC[C@H](NC(=O)CNC(=O)CC[C@H](NC(=O)CCCCCCCCCCCCCCCCC(=O)O)C(=O)O)C(=O)O)C(N)=O)[C@@H](C)O)NC(=O)[C@H](CCCNC(=N)N)NC(=O)[C@H](Cc2c[nH]cn2)NC(=O)[C@H](CCC(=O)O)NC(=O)CNC(=O)[C@H](Cc2c[nH]c3ccccc23)NC(=O)[C@H](CC(=O)O)NC(=O)[C@H](CCC(N)=O)NC(=O)[C@H](Cc2cn(C)c3ccccc23)NC1=O [Compound 130] (Ac-SEFCI[Trp(1-Me)]QDWGEHRCTEGEGGGK([γGlu-Gly-γGlu-C18 diacid])-NH2; disulfide 4-14) | < 100 nM
3 | CC[C@H](C)[C@@H]1NC(=O)[C@@H](NC(=O)[C@H](Cc2ccccc2)NC(=O)[C@H](CCC(=O)O)NC(=O)[C@H](CO)NC(C)=O)CSSC[C@@H](C(=O)N[C@H](C(=O)N[C@@H](CCC(=O)O)C(=O)NCC(=O)N[C@@H](CCC(=O)O)C(=O)NCC(=O)NCC(=O)NCC(=O)N[C@@H](CCCCNC(=O)CC[C@H](NC(=O)CNC(=O)CC[C@H](NC(=O)CCCCCCCCCCCCCCC(=O)O)C(=O)O)C(=O)O)C(N)=O)[C@@H](C)O)NC(=O)[C@H](CCCNC(=N)N)NC(=O)[C@H](Cc2c[nH]cn2)NC(=O)[C@H](CCC(=O)O)NC(=O)CNC(=O)[C@H](Cc2c[nH]c3ccccc23)NC(=O)[C@H](CC(=O)O)NC(=O)[C@H](CCC(N)=O)NC(=O)[C@H](Cc2cn(C)c3ccccc23)NC1=O [Compound 131] (Ac-SEFCI[Trp(1-Me)]QDWGEHRCTEGEGGGK([γGlu-Gly-γGlu-C16 diacid])-NH2; disulfide 4-14) | < 100 nM
4 | CC[C@H](C)[C@@H]1NC(=O)[C@@H](NC(=O)[C@H](Cc2ccccc2)NC(=O)[C@H](CCC(=O)O)NC(=O)[C@H](CO)NC(C)=O)CSSC[C@@H](C(=O)N(C)CC(=O)N[C@@H](CCC(=O)O)C(=O)N[C@@H](CCCCN)C(=O)N[C@@H](CCC(=O)NCC(=O)NCC(=O)NCC(=O)N[C@@H](CCCCNC(=O)CC[C@H](NC(=O)CNC(=O)CC[C@H](NC(=O)CCCCCCCCCCCCCCCCC(=O)O)C(=O)O)C(=O)O)C(N)=O)C(=O)O)NC(=O)[C@H](CCCNC(=N)N)NC(=O)[C@H](Cc2c[nH]cn2)NC(=O)[C@H](CCC(=O)O)NC(=O)CNC(=O)[C@H](Cc2c[nH]c3ccccc23)NC(=O)[C@H](CC(=O)O)NC(=O)[C@H](CCC(N)=O)NC(=O)[C@H](Cc2cn(C)c3ccccc23)NC1=O [Compound 132] (Ac-SEFCI[Trp(1-Me)]QDWGEHRC[Sar]EK[γGlu]GGGK([γGlu-Gly-γGlu-C18 diacid])-NH2; disulfide 4-14) | < 100 nM
5 | CC[C@H](C)[C@@H]1NC(=O)[C@@H](NC(=O)[C@H](Cc2ccccc2)NC(=O)[C@H](CCC(=O)O)NC(=O)[C@H](CO)NC(C)=O)CSSC[C@@H](C(=O)N[C@H](C(=O)N[C@@H](CCC(=O)O)C(=O)N[C@@H](CCCCN)C(=O)N[C@@H](CCC(=O)NCC(=O)NCC(=O)NCC(=O)N[C@@H](CCCCNC(=O)CC[C@H](NC(=O)CNC(=O)CC[C@H](NC(=O)CCCCCCCCCCCCCCCCC(=O)O)C(=O)O)C(=O)O)C(N)=O)C(=O)O)[C@@H](C)O)NC(=O)[C@H](CCCNC(=N)N)NC(=O)[C@H](Cc2c[nH]cn2)NC(=O)[C@H](CCC(=O)O)NC(=O)CNC(=O)[C@H](Cc2c[nH]c3ccccc23)NC(=O)[C@H](CC(=O)O)NC(=O)[C@H](CCC(N)=O)NC(=O)[C@H](Cc2cn(C)c3ccccc23)NC1=O [Compound 133] (Ac-SEFCI[Trp(1-Me)]QDWGEHRCTEK[γGlu]GGGK([γGlu-Gly-γGlu-C18 diacid])-NH2; disulfide 4-14) | < 100 nM
6 | CC[C@H](C)[C@@H]1NC(=O)[C@@H](NC(=O)[C@H](Cc2ccccc2)NC(=O)[C@H](CCC(=O)O)NC(C)=O)CSSC[C@@H](C(=O)N[C@@H](CCC(=O)O)C(=O)NCC(=O)N[C@@H](CCC(=O)O)C(=O)N[C@@H](CCCCNC(=O)CC[C@H](NC(=O)CNC(=O)CC[C@H](NC(=O)CCCCCCCCCCCCCCCCC(=O)O)C(=O)O)C(=O)O)C(N)=O)NC(=O)[C@H](CCCNC(=N)N)NC(=O)[C@H](Cc2c[nH]cn2)NC(=O)[C@H](CCC(=O)O)NC(=O)CNC(=O)[C@H](Cc2c[nH]c3ccccc23)NC(=O)[C@H](CC(=O)O)NC(=O)[C@H](CCC(N)=O)NC(=O)[C@H](Cc2cn(C)c3ccccc23)NC1=O [Compound 134] (Ac-EFCI[Trp(1-Me)]QDWGEHRCEGEK([γGlu-Gly-γGlu-C18 diacid])-NH2; disulfide 3-13) | < 100 nM
7 | CC[C@H](C)[C@@H]1NC(=O)[C@@H](NC(=O)[C@H](Cc2ccccc2)NC(=O)[C@H](CCC(=O)O)NC(=O)[C@H](CO)NC(C)=O)CSSC[C@@H](C(=O)N[C@H](C(=O)N[C@@H](CCC(=O)O)C(=O)NCC(=O)N[C@@H](CCC(=O)O)C(=O)NCCCCCCCC(=O)N[C@@H](CCCCNC(=O)CC[C@H](NC(=O)CNC(=O)CC[C@H](NC(=O)CCCCCCCCCCCCCCCCC(=O)O)C(=O)O)C(=O)O)C(N)=O)[C@@H](C)O)NC(=O)[C@H](CCCNC(=N)N)NC(=O)[C@H](Cc2c[nH]cn2)NC(=O)[C@H](CCC(=O)O)NC(=O)CNC(=O)[C@H](Cc2c[nH]c3ccccc23)NC(=O)[C@H](CC(=O)O)NC(=O)[C@H](CCC(N)=O)NC(=O)[C@H](Cc2cn(C)c3ccccc23)NC1=O [Compound 136] (Ac-SEFCI[Trp(1-Me)]QDWGEHRCTEGE[Aoc]K([γGlu-Gly-γGlu-C18 diacid])-NH2; disulfide 4-14) | < 100 nM
8 | CC[C@H](C)[C@@H]1NC(=O)[C@@H](NC(=O)[C@H](Cc2ccccc2)NC(=O)[C@H](CCC(=O)O)NC(=O)[C@H](CO)NC(C)=O)CSSC[C@@H](C(=O)N[C@H](C(=O)N[C@@H](CCC(=O)O)C(=O)NCC(=O)N[C@@H](CCC(=O)O)C(=O)NCCCCCCCC(=O)N[C@@H](CCC(=O)O)C(=O)N[C@@H](CCCCNC(=O)CC[C@H](NC(=O)CNC(=O)CC[C@H](NC(=O)CCCCCCCCCCCCCCCCC(=O)O)C(=O)O)C(=O)O)C(N)=O)[C@@H](C)O)NC(=O)[C@H](CCCNC(=N)N)NC(=O)[C@H](Cc2c[nH]cn2)NC(=O)[C@H](CCC(=O)O)NC(=O)CNC(=O)[C@H](Cc2c[nH]c3ccccc23)NC(=O)[C@H](CC(=O)O)NC(=O)[C@H](CCC(N)=O)NC(=O)[C@H](Cc2cn(C)c3ccccc23)NC1=O [Compound 137] (Ac-SEFCI[Trp(1-Me)]QDWGEHRCTEGE[Aoc]EK([γGlu-Gly-γGlu-C18 diacid])-NH2; disulfide 4-14) | < 100 nM
9 | CC[C@H](C)[C@@H]1NC(=O)[C@@H](NC(=O)[C@H](Cc2ccccc2)NC(=O)[C@H](CCC(=O)O)NC(=O)[C@H](CO)NC(C)=O)CSSC[C@@H](C(=O)N(C)CC(=O)N[C@@H](CCC(=O)O)C(=O)NCC(=O)N[C@@H](CCC(=O)O)C(=O)NCCOCCOCC(=O)N[C@@H](CCCCNC(=O)CC[C@H](NC(=O)CNC(=O)CC[C@H](NC(=O)CCCCCCCCCCCCCCCCC(=O)O)C(=O)O)C(=O)O)C(N)=O)NC(=O)[C@H](CCCNC(=N)N)NC(=O)[C@H](Cc2c[nH]cn2)NC(=O)[C@H](CCC(=O)O)NC(=O)CNC(=O)[C@H](Cc2c[nH]c3ccccc23)NC(=O)[C@H](CC(=O)O)NC(=O)[C@H](CCC(N)=O)NC(=O)[C@H](Cc2cn(C)c3ccccc23)NC1=O [Compound 138] (Ac-SEFCI[Trp(1-Me)]QDWGEHRC[Sar]EGE[AEEA]K([γGlu-Gly-γGlu-C18 diacid])-NH2; disulfide 4-14) | < 100 nM
10 | CC[C@H](C)[C@@H]1NC(=O)[C@@H](NC(=O)[C@H](Cc2ccccc2)NC(=O)[C@H](CCC(=O)O)NC(=O)[C@H](CO)NC(C)=O)CSSC[C@@H](C(=O)N(C)CC(=O)N[C@@H](CCC(=O)O)C(=O)NCC(=O)N[C@@H](CCC(=O)O)C(=O)NCCOCCOCC(=O)NCCOCCOCC(=O)NCCOCCOCC(=O)N[C@@H](CCCCNC(=O)CC[C@H](NC(=O)CNC(=O)CC[C@H](NC(=O)CCCCCCCCCCCCCCCCC(=O)O)C(=O)O)C(=O)O)C(N)=O)NC(=O)[C@H](CCCNC(=N)N)NC(=O)[C@H](Cc2c[nH]cn2)NC(=O)[C@H](CCC(=O)O)NC(=O)CNC(=O)[C@H](Cc2c[nH]c3ccccc23)NC(=O)[C@H](CC(=O)O)NC(=O)[C@H](CCC(N)=O)NC(=O)[C@H](Cc2cn(C)c3ccccc23)NC1=O [Compound 143] (Ac-SEFCI[Trp(1-Me)]QDWGEHRC[Sar]EGE[AEEA][AEEA][AEEA]K([γGlu-Gly-γGlu-C18 diacid])-NH2; disulfide 4-14) | < 100 nM
11 | CC[C@H](C)[C@@H]1NC(=O)[C@@H](NC(=O)[C@H](Cc2ccccc2)NC(=O)[C@H](CCC(=O)O)NC(C)=O)CSSC[C@@H](C(=O)N(C)CC(=O)N[C@@H](CCC(=O)O)C(=O)N[C@@H](C)C(=O)NCCOCCOCC(=O)NCCOCCOCC(=O)N[C@@H](CCCCNC(=O)CC[C@H](NC(=O)CNC(=O)CC[C@H](NC(=O)CCCCCCCCCCCCCCCCC(=O)O)C(=O)O)C(=O)O)C(N)=O)NC(=O)[C@H](CCCNC(=N)N)NC(=O)[C@H](Cc2c[nH]cn2)NC(=O)[C@H](CCC(=O)O)NC(=O)CNC(=O)[C@H](Cc2c[nH]c3ccccc23)NC(=O)[C@H](CC(=O)O)NC(=O)[C@H](CCC(N)=O)NC(=O)[C@H](Cc2cn(C)c3ccccc23)NC1=O [Compound 145] (Ac-EFCI[Trp(1-Me)]QDWGEHRC[Sar]EA[AEEA][AEEA]K([γGlu-Gly-γGlu-C18 diacid])-NH2; disulfide 3-13) | < 100 nM
